Reference: US20230345940A1, “INSECTICIDE” (Western Sydney University, priority 2020, published 2023)
Values joined by “and” are separate entries in the source; they are usually repeats but may differ in a detail not shown here. Identical values can stand only once.

Experiments:
[1] = tested on: adult foraging workers of Apis mellifera; test: Acute toxicity to honey bees, Potter Spray Tower; type: in vivo; details: for Knockdown (K), no. of bees / Mortality (D), no. of bees: n = 10, extract 1.0% w/v, bifenthrin 0.05% w/v
Protocol: The laboratory-based bioassay was performed to assess the acute toxicity of the extracts against adult foraging workers of Apis mellifera. 3 mL aliquots of P. jaceoides extract were applied at 1.0% a.i. w/v via a Potter Spray Tower, using the methodology previously described for the preparation and application of this plant extract to test insects.
Bifenthrin (CAS No 82657-04-3) 97.0% technical (Batch 50118) was sourced from Dr. Ehrenstorfer GmbH D-86190 Augsburg, Germany. A 0.05% w/v a.i. concentration was prepared by dissolving 0.013 g bifenthrin in 1 mL acetone, sonicating for 5 min and then diluted in a 25 mL volumetric flask with 200 ppm Triton X-100 in distilled water. It was applied using a 3 mL aliquot of the 0.05% a.i via a Potter Spray Tower; this concentration was based on recommended label rate in cotton. The control comprised 5 mL acetone and water-Triton X-100 mixture only; two controls were conducted.
Apis mellifera foraging workers for bioassay were collected from a strong, healthy hive at Western Sydney University apiary, at Richmond NSW, Australia, by blocking the hive entrance for 1 min and collecting foragers with a sweep net.
They were immediately transferred to a mesh cage (25×33×33 cm) and maintained in the laboratory at 24° C., where they were fed ad libidum sugar:water 1:1 w/v from cotton wool placed on the mesh at the top of the cage until bioassay, which was undertaken within 1 h of bee collection. Bees for bioassay were randomly collected from the cage using a 120 mL plastic specimen tube, and anaesthetised with medical grade CO2 for 30 s, then ten bees were placed on a 90 mm diameter Petri dish lined with filter paper. The dish with the bees was placed on the Potter Spray Tower stage, and the respective treatment applied, commencing with the control and finishing with bifenthrin treatment.
Immediately after treatment, the treated bees were gently transferred to 250 mL glass beakers, fine nylon mesh was fitted to the top with a rubber band, and the bees fed were sugar:water as above and maintained at 26° C. in very low light. Bee activity was regularly observed and recorded, at 10 min intervals until 420 min (viz. 7 HAT), then less frequently until 48 HAT. By this time, there was bee mortality in both controls, so the investigation was terminated. Data recorded were signs of intoxication, knockdown (K) and mortality (D).

[2] = tested on: Aphis gossypii adults and nymphs; test: Field trial on cotton crop; type: in vivo; details: extract at 1.0%, clothianidin at 125 mL/ha
Protocol: A trial was conducted on an irrigated commercial Bollgard II cotton crops (Sicot 74 variety) at the Australian Cotton Research Institute (ACM) in Narrabri NSW, Australia. The cotton crop used for the study comprised mature plants close to cut-out and were contaminated with Aphis gossypii from infested leaves collected from a nearby commercial cotton field at Yarral, Narrabri NSW, Australia.
[…] Each replicated plot measured 2 m (2 rows) wide and 1 m long with 2 m (rows) buffer between replicated plots. Three plants in each treatment replicate with terminals infested with aphids were randomly selected and terminals tagged for pre- and post-treatment assessments.
The control was sprayed with 100 ppm Triton-X 100 in water only.
Foliar application of each treatment was performed, applying the control first, then the plant extract, and finally the industry standard. Each treatment was applied to run-off using a small hand-held pressure sprayer fitted with flat fan nozzles delivering a droplet size of 200 μm (equivalent to field application of 100 L/ha). The decision to apply the treatment was made based on the IPM Guidelines and CottonLogic recommended economic threshold of 50% of plant terminals infested.
The number of A. gossypii and beneficial species (mainly predatory insects) were assessed by visually counting A. gossypii adults and nymphs and beneficials on the upper and undersides of leaves from the 3-4 nodes below the tagged plant terminals. Pre-treatment counts were made 24 h before treatment and post treatment counts on 1, 2, 5, 6, 7, 8, 9, 12 and 14 days after treatment (DAT).
The data for both A. gossypii adults and nymphs as well as predatory insects were each initially expressed as numbers per terminal. Data were calculated as percentage reduction of population compared to the pre-treatment count.
Means of data on population reduction were compared using one-way ANOVA, after confirming normality, using SPSS v21. Significance was normally set at 5% (α=0.05), and when there was significance, means were separated using Duncan's Multiple range test.

Cc1c(COC(=O)[C@@H]2[C@H](/C=C(\Cl)C(F)(F)F)C2(C)C)cccc1-c1ccccc1 (racemic) [Bifenthrin]
knockdown commenced ([1]; 0.05% w/v a.i.): 10 MAT
mortality commenced ([1]; 0.05% w/v a.i.): 90 MAT
time of 50% bee knockdown ([1]; 0.05% w/v a.i.): 45-50 MAT
time of 50% mortality ([1]; 0.05% w/v a.i.): 240 MAT
Knockdown (K), no. of bees ([1]; 10 min): 1K
Knockdown (K), no. of bees ([1]; 20 min): 1K
Knockdown (K), no. of bees ([1]; 30 min): 2K
Knockdown (K), no. of bees ([1]; 40 min): 3K
Knockdown (K), no. of bees ([1]; 45 min): 4K
Knockdown (K), no. of bees ([1]; 50 min): 6K
Knockdown (K), no. of bees ([1]; 60 min): 6K
Knockdown (K), no. of bees ([1]; 70 min): 6K
Knockdown (K), no. of bees ([1]; 80 min): 6K
Knockdown (K), no. of bees ([1]; 90 min): 5
Mortality (D), no. of bees ([1]; 90 min): 1
Knockdown (K), no. of bees ([1]; 100 min): 3K, 3D
Mortality (D), no. of bees ([1]; 100 min): 3K, 3D
Knockdown (K), no. of bees ([1]; 110 min): 4K,
Knockdown (K), no. of bees ([1]; 120 min): 4K,
Knockdown (K), no. of bees ([1]; 130 min): 4K,
Knockdown (K), no. of bees ([1]; 140 min): 3
Mortality (D), no. of bees ([1]; 140 min): 4
Knockdown (K), no. of bees ([1]; 150 min): 3
Mortality (D), no. of bees ([1]; 150 min): 4
Knockdown (K), no. of bees ([1]; 160 min): 4K, 4D
Mortality (D), no. of bees ([1]; 160 min): 4K, 4D
Knockdown (K), no. of bees ([1]; 170 min): 4K, 4D
Mortality (D), no. of bees ([1]; 170 min): 4K, 4D
Knockdown (K), no. of bees ([1]; 180 min): 4K, 4D
Mortality (D), no. of bees ([1]; 180 min): 4K, 4D
Knockdown (K), no. of bees ([1]; 190 min): 4K, 4D
Mortality (D), no. of bees ([1]; 190 min): 4K, 4D
Knockdown (K), no. of bees ([1]; 200 min): 4K, 4D
Mortality (D), no. of bees ([1]; 200 min): 4K, 4D
Knockdown (K), no. of bees ([1]; 210 min): 4K, 4D
Mortality (D), no. of bees ([1]; 210 min): 4K, 4D
Knockdown (K), no. of bees ([1]; 220 min): 5
Mortality (D), no. of bees ([1]; 220 min): 4
Knockdown (K), no. of bees ([1]; 230 min): 5
Mortality (D), no. of bees ([1]; 230 min): 4
Knockdown (K), no. of bees ([1]; 240 min): 4
Mortality (D), no. of bees ([1]; 240 min): 5
Knockdown (K), no. of bees ([1]; 250 min): 3
Mortality (D), no. of bees ([1]; 250 min): 6
Knockdown (K), no. of bees ([1]; 260 min): 3
Mortality (D), no. of bees ([1]; 260 min): 6
Knockdown (K), no. of bees ([1]; 270 min): 3
Mortality (D), no. of bees ([1]; 270 min): 6
Knockdown (K), no. of bees ([1]; 280 min): 3
Mortality (D), no. of bees ([1]; 280 min): 6
Knockdown (K), no. of bees ([1]; 290 min): 3
Mortality (D), no. of bees ([1]; 290 min): 6
Knockdown (K), no. of bees ([1]; 300 min): 3
Mortality (D), no. of bees ([1]; 300 min): 6
Knockdown (K), no. of bees ([1]; 310 min): 3
Mortality (D), no. of bees ([1]; 310 min): 6
Knockdown (K), no. of bees ([1]; 320 min): 3
Mortality (D), no. of bees ([1]; 320 min): 6
Knockdown (K), no. of bees ([1]; 330 min): 1
Mortality (D), no. of bees ([1]; 330 min): 8
Knockdown (K), no. of bees ([1]; 340 min): 1
Mortality (D), no. of bees ([1]; 340 min): 8
Knockdown (K), no. of bees ([1]; 350 min): 1
Mortality (D), no. of bees ([1]; 350 min): 8
Knockdown (K), no. of bees ([1]; 360 min): 1
Mortality (D), no. of bees ([1]; 360 min): 8
Knockdown (K), no. of bees ([1]; 370 min): 1
Mortality (D), no. of bees ([1]; 370 min): 8
Knockdown (K), no. of bees ([1]; 380 min): 1
Mortality (D), no. of bees ([1]; 380 min): 8
Knockdown (K), no. of bees ([1]; 390 min): 0
Mortality (D), no. of bees ([1]; 390 min): 9
Knockdown (K), no. of bees ([1]; 400 min): 0
Mortality (D), no. of bees ([1]; 400 min): 9
Knockdown (K), no. of bees ([1]; 410 min): 0
Mortality (D), no. of bees ([1]; 410 min): 9
Knockdown (K), no. of bees ([1]; 420 min): 0
Mortality (D), no. of bees ([1]; 420 min): 9
Knockdown (K), no. of bees ([1]; 450 min): 0
Mortality (D), no. of bees ([1]; 450 min): 9
Mortality (D), no. of bees ([1]; 480 min): 10D
mortality ([1]; by 480 MAT, 0.05% w/v a.i.): 100%

CN/C(=N\[N+](=O)[O-])NCc1cnc(Cl)s1 [Clothianidin]
% Reduction from pre-treatment count, Mean of plots, 1 DAT ([2]; mean of plots 1-4): 54.65%
% Reduction from pre-treatment count, Mean of plots, 2 DAT ([2]; mean of plots 1-4): 77.18%
% Reduction from pre-treatment count, Mean of plots, 5 DAT ([2]; mean of plots 1-4): 85.08a, b %
% Reduction from pre-treatment count, Mean of plots, 6 DAT ([2]; mean of plots 1-4): 84.83%
% Reduction from pre-treatment count, Mean of plots, 7 DAT ([2]; mean of plots 1-4): 77.88%
% Reduction from pre-treatment count, Mean of plots, 14 DAT ([2]; mean of plots 1-4): 82.08%
% Reduction from pre-treatment count (mean of 3 plants), 2 DAT ([2]; per plot, single spray): 55.1% and 92.9% and 64.4% and 96.3%
% Reduction from pre-treatment count (mean of 3 plants), 5 DAT ([2]; per plot, single spray): 75.0% and 78.6% and 97.8% and 88.9%
% Reduction from pre-treatment count (mean of 3 plants), 6 DAT ([2]; per plot, single spray): 84.6% and 64.3% and 97.8% and 92.6%
% Reduction from pre-treatment count (mean of 3 plants), 14 DAT ([2]; per plot, single spray): 97.8% and 78.6% and 77.8% and 74.1%
